Consider 13 molecules from paper PMC10527105, “Chirality Matters: Fine-Tuning of Novel Monoamine Reuptake Inhibitors Selectivity through Manipulation of Stereochemistry” (Biomolecules, 2023).

Common to all, as to assay type: cell-based
For test [1], the target named is T1, human dopamine transporter/SLC6A3 (DAT) (Homo sapiens, UniProt Q01959).
T1 construct: expressed in transfected cells; host or cells: HEK293
Put plainly: Cellular uptake experiments: [3H]-dopamine reuptake inhibition in transporter-expressing HEK293 cells. The settings on record: cells stably expressing DAT, [3H]-dopamine 1 µM, screening cut-off 50 µM. How it is done:
(§1) Cell culture. Human embryonic kidney (HEK) 293 or SK-N-MC (human neuroblastoma) cells were grown in minimum essential medium with Earle’s salts and L-glutamine, 10% heat-inactivated fetal bovine serum, and 50 mg/L gentamicin. Cells were grown in 100- or 60-mm diameter tissue culture dishes (polystyrene, Falcon) at 37 °C under an atmosphere of 5% CO2/95% air. The human dopamine transporter/SLC6A3 (DAT), noradrenaline transporter/SLC6A2 (NET), or human serotonin transporter/SLC6A4 (SERT) cDNA was stably expressed using methods as described previously.
(§2) Cellular uptake experiments. The transporter-expressing HEK293 cells were seeded in poly-D-lysine-coated 24-well plates (1 × 10^5 cells/well) and, one day later, each well was washed with 0.5 mL uptake buffer and incubated with 0.5 mL buffer containing various concentrations of the drugs. Uptake was started by the addition of [^3H]-dopamine, [^3H]-noradrenaline, or [^3H]-serotonin at a final concentration of 1 µM (specific activity 0.14 Ci/mmol) after 5 min of preincubation. After incubation for 2.5 min (SERT-cells: 5 min) at 25 °C, it was stopped by aspirating the uptake buffer and washing each well twice with 1 mL ice-cold buffer. Nonspecific uptake was determined in the presence of 10 µM mazindol (DAT- and NET-cells) or 10 µM clomipramine (SERT-cells). The radioactivity remaining in each well was determined by incubating with 0.4 mL 1% sodium dodecyl sulphate and transferring this solution into scintillation vials containing 3 mL of scintillation cocktail (Ultima Gold MV, Packard, Dovners Grove, IL, USA). The uptake buffer consisted of (mmol/L): 4 Tris–HCl; 6.25 4-(2-hydroxyethyl)-1-piperazineethanesulfonic acid (HEPES); 120 NaCl; 5 KCl; 1.2 CaCl2; 1.2 MgSO4; 5.6 D-glucose; 0.5 ascorbic acid; pH 7.1.

The target in test [2] is T2, noradrenaline transporter/SLC6A2 (NET) (Homo sapiens, UniProt P23975).
T2 construct: expressed in transfected cells; host or cells: HEK293
T2 sequence (P23975 whole entry): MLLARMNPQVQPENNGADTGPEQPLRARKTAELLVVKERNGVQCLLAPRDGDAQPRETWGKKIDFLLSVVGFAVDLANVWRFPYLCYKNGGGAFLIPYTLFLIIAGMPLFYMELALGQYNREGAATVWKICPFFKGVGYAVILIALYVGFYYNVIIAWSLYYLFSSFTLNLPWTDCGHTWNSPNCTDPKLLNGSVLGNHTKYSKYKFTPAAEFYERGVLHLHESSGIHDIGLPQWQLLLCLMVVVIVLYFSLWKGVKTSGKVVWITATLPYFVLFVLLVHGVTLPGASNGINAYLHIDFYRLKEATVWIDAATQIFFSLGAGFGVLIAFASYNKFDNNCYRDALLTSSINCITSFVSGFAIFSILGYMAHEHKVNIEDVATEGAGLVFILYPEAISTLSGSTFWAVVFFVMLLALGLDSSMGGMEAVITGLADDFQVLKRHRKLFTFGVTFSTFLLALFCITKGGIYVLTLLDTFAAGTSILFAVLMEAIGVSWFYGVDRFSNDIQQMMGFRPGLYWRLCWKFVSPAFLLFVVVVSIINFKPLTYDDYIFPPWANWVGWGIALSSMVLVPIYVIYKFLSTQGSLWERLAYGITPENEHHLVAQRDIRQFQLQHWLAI
Put plainly: Cellular uptake experiments: [3H]-noradrenaline reuptake inhibition in transporter-expressing HEK293 cells. How it is done: as §1, §2

The target in test [3] is T3, human serotonin transporter/SLC6A4 (SERT) (Homo sapiens, UniProt P31645).
T3 construct: expressed in transfected cells; host or cells: HEK293
T3 sequence (P31645 whole entry): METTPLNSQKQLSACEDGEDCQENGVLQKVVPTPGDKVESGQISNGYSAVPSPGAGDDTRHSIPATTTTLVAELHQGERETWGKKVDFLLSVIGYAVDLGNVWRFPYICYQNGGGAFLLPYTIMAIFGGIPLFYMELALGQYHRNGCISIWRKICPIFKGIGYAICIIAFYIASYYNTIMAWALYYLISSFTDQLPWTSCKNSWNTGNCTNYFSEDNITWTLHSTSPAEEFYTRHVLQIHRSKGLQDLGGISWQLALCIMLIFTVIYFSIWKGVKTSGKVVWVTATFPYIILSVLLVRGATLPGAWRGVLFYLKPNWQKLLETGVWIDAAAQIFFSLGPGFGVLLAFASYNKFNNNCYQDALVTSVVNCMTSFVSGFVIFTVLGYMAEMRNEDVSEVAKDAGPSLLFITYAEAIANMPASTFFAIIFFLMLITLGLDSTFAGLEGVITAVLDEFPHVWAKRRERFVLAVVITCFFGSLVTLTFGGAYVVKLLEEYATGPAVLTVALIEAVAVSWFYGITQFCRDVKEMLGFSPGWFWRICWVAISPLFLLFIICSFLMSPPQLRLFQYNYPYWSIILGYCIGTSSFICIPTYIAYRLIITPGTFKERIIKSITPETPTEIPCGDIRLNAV
Put plainly: Cellular uptake experiments: [3H]-serotonin reuptake inhibition in transporter-expressing HEK293 cells. How it is done:
as §1, §2

Where [4] appears, read: Reuptake Inhibition (IC50 ± SE, µM) DAT.
Where [5] appears, read: Reuptake Inhibition (IC50 ± SE, µM) NET, cells stably expressing NET, [3H]-noradrenaline 1 µM, screening cut-off 50 µM.
Where [6] appears, read: Reuptake Inhibition (IC50 ± SE, µM) SERT, cells stably expressing SERT; [3H]-serotonin 1 µM; screening cut-off 50 µM.
Setting [7] is: read-out: Reuptake Inhibition (IC50 ± SE, µM) NET, cells stably expressing NET, [3H]-noradrenaline 1 µM, screening cut-off 50 µM.
Setting [8] is: read-out: Reuptake Inhibition (IC50 ± SE, µM) SERT; cells stably expressing SERT; [3H]-serotonin 1 µM; screening cut-off 50 µM.
Setting [9] is: read-out: Reuptake Inhibition (IC50 ± SE, µM) DAT.
Setting [10] is: cells stably expressing SERT; [3H]-serotonin 1 µM; screening cut-off 50 µM; read-out: Reuptake Inhibition (IC50 ± SE, µM) SERT.

Molecules are shown by their SMILES. Where two headings read alike, the source gives them in different places.

T1 sequence (Q01959 whole entry): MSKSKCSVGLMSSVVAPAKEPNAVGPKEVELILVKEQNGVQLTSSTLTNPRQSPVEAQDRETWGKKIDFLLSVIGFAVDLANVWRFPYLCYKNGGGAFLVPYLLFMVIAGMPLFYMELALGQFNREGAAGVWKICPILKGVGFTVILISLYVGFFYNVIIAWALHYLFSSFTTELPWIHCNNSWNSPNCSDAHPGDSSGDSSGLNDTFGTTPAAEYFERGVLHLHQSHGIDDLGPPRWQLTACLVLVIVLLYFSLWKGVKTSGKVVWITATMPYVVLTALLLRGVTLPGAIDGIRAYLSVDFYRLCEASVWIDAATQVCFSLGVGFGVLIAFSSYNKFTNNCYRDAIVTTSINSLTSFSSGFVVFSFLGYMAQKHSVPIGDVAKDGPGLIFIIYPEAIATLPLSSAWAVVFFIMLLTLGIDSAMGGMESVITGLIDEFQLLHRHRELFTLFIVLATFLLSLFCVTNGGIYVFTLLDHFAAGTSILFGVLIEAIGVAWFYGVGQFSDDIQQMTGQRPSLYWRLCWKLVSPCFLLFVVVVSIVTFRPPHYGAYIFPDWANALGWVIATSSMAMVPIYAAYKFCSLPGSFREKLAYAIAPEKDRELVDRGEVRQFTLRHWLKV

Take `[O-][S@+](Cc1cccs1)[C@@H](c1ccccc1)c1cccc(Cl)c1` [Compound 6e, (R,S)-2-((((3-chlorophenyl)(phenyl)methyl)sulfinyl)methyl)thiophene]: the IC50 (in general, the concentration at which inhibition is half-maximal) was 14.1 ± 0.5 µM in test [1] (setting [4]), greater than 50 µM in test [2] (setting [5]) and greater than 50 µM in test [3] (setting [6]).
Take `[O-][S@+](Cc1cccs1)[C@@H](c1ccccc1)c1ccc(Cl)cc1` [Compound 6f, (R,S)-2-((((4-chlorophenyl)(phenyl)methyl)sulfinyl)methyl)thiophene]: the IC50 is 46 ± 1 µM in test [1] (setting [4]), greater than 50 µM in test [2] (setting [5]) and greater than 50 µM in test [3] (setting [6]).
Regarding `[O-][S+](Cc1cccs1)C(c1ccccc1)c1ccccc1Br` (stereo not drawn) [Compound 6g, 2-((((2-bromophenyl)(phenyl)methyl)sulfinyl)methyl)thiophene], the results for the IC50 in test [1] (setting [4]), in test [2] (setting [7]) and in test [3] (setting [8]) were 12.1 ± 1 µM, greater than 50 µM and greater than 50 µM, respectively.
With `[O-][S@+](Cc1cccs1)[C@@H](c1ccccc1)c1cccc(Br)c1` [Compound 6h, (R,S)-2-((((3-bromophenyl)(phenyl)methyl)sulfinyl)methyl)thiophene], the figures for the IC50 in test [1] (setting [4]), in test [2] and in test [3] (setting [6]) were 15 ± 1 µM, greater than 50 µM and greater than 50 µM, respectively.
Consider `[O-][S+](Cc1cccs1)C(c1ccccc1)c1ccccc1I` (stereo not drawn) [Compound 6i, 2-((((2-iodophenyl)(phenyl)methyl)sulfinyl)methyl)thiophene], for which the values for the IC50 in test [1] (setting [4]), in test [2] (setting [7]) and in test [3] (setting [8]) were 20.3 ± 0.6 µM, greater than 50 µM and greater than 50 µM, respectively.
For `[O-][S+](Cc1cccs1)C(c1ccccc1)c1cccc(I)c1` (stereo not drawn) [Compound 6j, 2-((((3-iodophenyl)(phenyl)methyl)sulfinyl)methyl)thiophene], the results for the IC50 in test [1] (setting [4]), in test [2] (setting [7]) and in test [3] (setting [8]) were 17.7 ± 2.2 µM, greater than 50 µM and greater than 50 µM, respectively.
For `[O-][S@+](Cc1cccs1)[C@@H](c1ccccc1)c1ccc(I)cc1` [Compound 6k, (R,S)-2-((((4-iodophenyl)(phenyl)methyl)sulfinyl)methyl)thiophene], the IC50 in test [1] (setting [4]) is 1.1 ± 0.3 µM; in test [2] (setting [5]), greater than 50 µM; in test [3] (setting [6]) it was 3.8 ± 0.5 µM.
As for `Cc1ccccc1C(c1ccccc1)[S+]([O-])Cc1cccs1` (stereo not drawn) [Compound 6l, 2-(((phenyl(o-tolyl)methyl)sulfinyl)methyl)thiophene], the IC50 was greater than 50 µM in test [1] (setting [9]); greater than 50 µM in test [2] (cells stably expressing NET, [3H]-noradrenaline 1 µM, screening cut-off 50 µM, read-out: Reuptake Inhibition (IC50 ± SE, µM) NET); greater than 50 µM in test [3] (setting [10]).
As to `Cc1cccc([C@H](c2ccccc2)[S@+]([O-])Cc2cccs2)c1` [Compound 6m, (R,S)-2-(((phenyl(m-tolyl)methyl)sulfinyl)methyl)thiophene], the IC50 in test [1] (setting [4]), in test [2] (setting [5]) and in test [3] (setting [6]) was greater than 50 µM throughout.
Turning to `Cc1ccc(C(c2ccccc2)[S+]([O-])Cc2cccs2)cc1` (stereo not drawn) [Compound 6n, 2-(((phenyl(p-tolyl)methyl)sulfinyl)methyl)thiophene], the IC50 in test [1] (setting [9]), in test [2] (setting [7]) and in test [3] (setting [10]) was greater than 50 µM throughout.
In the case of `[O-][S+](Cc1cccs1)C(c1ccccc1)c1ccccc1C(F)(F)F` (stereo not drawn) [Compound 6o, 2-(((phenyl(2-(trifluoromethyl)phenyl)methyl)sulfinyl)methyl)thiophene], the IC50 in test [1] (setting [4]), in test [2] (setting [5]) and in test [3] (setting [8]) was greater than 50 µM throughout.
`[O-][S+](Cc1cccs1)C(c1ccccc1)c1cccc(C(F)(F)F)c1` (stereo not drawn) [Compound 6p, 2-(((phenyl(3-(trifluoromethyl)phenyl)methyl)sulfinyl)methyl)thiophene]: the IC50 in test [1] (setting [4]) was 22 ± 1 µM; in test [2] (setting [7]) it was greater than 50 µM; in test [3] (setting [6]), greater than 50 µM.
In the case of `[O-][S+](Cc1cccs1)C(c1ccccc1)c1ccc(C(F)(F)F)cc1` (stereo not drawn) [Compound 6q, 2-(((phenyl(4-(trifluoromethyl)phenyl)methyl)sulfinyl)methyl)thiophene], the figures for the concentration for half-maximal inhibition (IC50) in test [1] (setting [4]), in test [2] (setting [7]) and in test [3] (setting [6]) were 40 ± 9 µM, greater than 50 µM and greater than 50 µM, respectively.
